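Compound exposure: 48 hours, 5 concentrations, 96-well plates. TGI marks complete inhibition of growth.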 A value given as a limit tells only on which side of the number the result lay.

Test systems include OVCAR-3 ovarian; T-47D breast; 786-0 renal; A498 renal; NCI-H23 lung; UO-31 renal; UACC-257 melanoma; SNB-19 CNS; PC-3 prostate; U251 CNS; SF-268 CNS.
Assay in all cases: inhibition of tumour cell growth, NCI panel, 48 h

Take `Cc1ccccc1C(=O)N/N=C/c1ccc(Sc2nccn2C)c([N+](=O)[O-])c1`: the TGI in the test with OVCAR-3 ovarian, with T-47D breast, in the test with 786-0 renal, in the test with A498 renal, in the test with NCI-H23 lung and with UO-31 renal was > 100 µM throughout. Besides, the TGI in the test with UACC-257 melanoma, in the test with SNB-19 CNS, with PC-3 prostate, in the test with U251 CNS and in the test on SF-268 CNS was > 100 µM in each case.
In the case of `CC(C)(C)c1cc(C2=NNC(c3ccccc3)C2)cc(C(C)(C)C)c1O` (centres undefined), the TGI in the test on OVCAR-3 ovarian turned out to be 14.6 µM; in the test with T-47D breast, 26.8 µM; in the test with 786-0 renal, 29.6 µM; with A498 renal, 29.7 µM; with NCI-H23 lung it was 33.7 µM; with UO-31 renal, 30.3 µM. The TGI in the test on UACC-257 melanoma was found to be 27.5 µM; in the test with SNB-19 CNS it was 36.4 µM; with PC-3 prostate it was 27.7 µM; with U251 CNS it was 28.8 µM; in the test with SF-268 CNS it was 36 µM.
Turning to `Cc1nn(-c2ccccc2)c(C)c1/C=N/N=C1\SCC(=O)N1c1ccccc1`, the TGI in the test with OVCAR-3 ovarian was 78.3 µM; in the test on T-47D breast, > 100 µM; in the test with 786-0 renal, 37.7 µM; in the test with A498 renal it was 78.3 µM; in the test on NCI-H23 lung, 86.4 µM; in the test with UO-31 renal it was 51.1 µM. The TGI with UACC-257 melanoma is 88.2 µM; in the test with SNB-19 CNS, > 100 µM; with PC-3 prostate it was 51.5 µM; in the test with U251 CNS, 69.3 µM; in the test on SF-268 CNS it was > 100 µM.
Turning to `Fc1ccc(C(OCCN2CCC3CCC(C2)N3C/C=C/c2ccco2)c2ccc(F)cc2)cc1` (centres undefined), the TGI amounted to 27.5 µM in the test with OVCAR-3 ovarian; 20.8 µM with T-47D breast; 22.2 µM with 786-0 renal; 23.3 µM in the test with A498 renal; 24 µM in the test with NCI-H23 lung; 28.8 µM with UO-31 renal. Moreover, the TGI in the test on UACC-257 melanoma came out at 17.4 µM; in the test with SNB-19 CNS, 32.8 µM; in the test with PC-3 prostate, 20.6 µM; in the test with U251 CNS it was 21.1 µM; in the test on SF-268 CNS it was 25.9 µM.
For the compound `O=C(C[n+]1ccc2ccccc2c1)c1ccc2ccc3ccccc3c2c1`, the TGI worked out at 17.7 µM in the test on OVCAR-3 ovarian; 19.3 µM in the test on T-47D breast; 18 µM in the test on 786-0 renal; 18.6 µM with A498 renal; 17.6 µM in the test with NCI-H23 lung; 17.6 µM in the test on UO-31 renal. The TGI with UACC-257 melanoma is 5.64 µM; in the test with SNB-19 CNS, 18.7 µM; in the test with PC-3 prostate, 15.3 µM; in the test on U251 CNS, 14.6 µM; in the test on SF-268 CNS it was 19.9 µM.
Take `NCCCCc1cc(O)c2c(c1O)C(=O)c1ccccc1C2=O`: the TGI was 19.4 µM with OVCAR-3 ovarian; 43.3 µM with T-47D breast; 19.6 µM in the test on 786-0 renal; 37.2 µM with A498 renal; 28.4 µM in the test with NCI-H23 lung; 20.3 µM in the test on UO-31 renal. Also, the TGI in the test on UACC-257 melanoma is 33.4 µM; in the test with SNB-19 CNS it was 29.2 µM; in the test on PC-3 prostate it was 22.8 µM; in the test with U251 CNS it was > 43 µM; in the test on SF-268 CNS, 29.9 µM.
With `CCC(C)C1=C(OC(C)=O)[N+]2([O-])Oc3ccc(-c4c(OC(C)=O)c(OC(C)=O)c(-c5ccc(OC(C)=O)cc5)c(OC(C)=O)c4OC(C)=O)cc3OC2(C(C)CC)C(=O)N1OC(C)=O` (centres undefined), the TGI in the test on OVCAR-3 ovarian is 29.5 µM; with T-47D breast, 24.8 µM; with 786-0 renal, 24 µM; in the test with A498 renal, > 50 µM; in the test with NCI-H23 lung, > 50 µM; in the test with UO-31 renal, > 50 µM. Besides, the TGI in the test on UACC-257 melanoma is > 50 µM; with SNB-19 CNS, > 50 µM; in the test on PC-3 prostate, > 50 µM; in the test with U251 CNS it was > 50 µM; in the test on SF-268 CNS, 37.6 µM.
On to `O=C(c1cccs1)N(C(=S)OC12CC3CC(CC(C3)C1)C2)c1ccccc1`, for which the TGI is > 100 µM with OVCAR-3 ovarian; > 100 µM with T-47D breast; > 100 µM in the test with 786-0 renal; > 100 µM in the test on A498 renal; > 100 µM with NCI-H23 lung; 70.3 µM in the test with UO-31 renal. Besides, the TGI with UACC-257 melanoma is > 100 µM; in the test on SNB-19 CNS, > 100 µM; in the test on PC-3 prostate, 88.5 µM; with U251 CNS it was > 100 µM; in the test on SF-268 CNS, > 100 µM.
In the case of `COc1cccc2c1Cc1cc(-c3ccccc3)[n+](C)n1-2`, the TGI in the test on OVCAR-3 ovarian is > 100 µM; with T-47D breast, 17.7 µM; in the test with 786-0 renal, 84.2 µM; with A498 renal it was > 100 µM; in the test on NCI-H23 lung it was 32.4 µM; in the test on UO-31 renal it was 90.8 µM. The TGI is 14.4 µM in the test on UACC-257 melanoma; > 100 µM in the test on SNB-19 CNS; 89.7 µM in the test with PC-3 prostate; > 100 µM in the test with U251 CNS; > 100 µM in the test with SF-268 CNS.

For the origin of these results see PubChem BioAssay (NCI).
